In US12343472B2, “Powder preparation, cartridge, and device” (Shin Nippon Biomedical Laboratories, Ltd., priority 2018, dated 2025):
“And” between values parts separate entries of the source, which are not always exact repeats. Equal values may be shown once. Read-outs that look alike come from different tables or passages of the source.

Legend:
[1] = Blood oxytocin concentration in monkey (EIA); assay type: in vivo, cynomolgus monkey; conditions: for AUC0-t / Cmax: blood oxytocin
Protocol: (§1) In order to measure the blood oxytocin concentration, blood was collected from the femoral vein with a syringe (dispensed into an EDTA-2K-containing blood collection tube) before administration and 2, 5, 10, 30, 60, 120, 240 and 480 minutes after administration (9 times in total). In order to measure the cerebrospinal fluid oxytocin concentration, cerebrospinal fluid was collected via a catheter indwelled in the cisterna magna before administration and 10, 30, 60, 120, 240 and 480 minutes after administration (7 times in total). The oxytocin concentration was measured by an EIA method involving an Oxytocin Enzyme Immunoassay Kit: Extraction-Free (Peninsula Laboratories International). This test was performed after being approved by the Animal Experimentation Ethics Committee of SNBL, Ltd.

in vivo = conditions: male, cynomolgus monkey, iv
Protocol: as §1

[2] = intravenous, individual animals

With `CC[C@H](C)[C@@H]1NC(=O)[C@H](Cc2ccc(O)cc2)NC(=O)[C@@H](N)CSSC[C@@H](C(=O)N2CCC[C@H]2C(=O)N[C@@H](CC(C)C)C(=O)NCC(N)=O)NC(=O)[C@H](CC(N)=O)NC(=O)[C@H](CCC(N)=O)NC1=O` [Comparative Example 13, oxytocin] the Blood oxytocin concentration ([1]; 2 min, oxytocin solution (0.4 mg/mL) intravenous, individual animals) was 222.00 ng/mL and 246.00 ng/mL and 205.00 ng/mL and 168.00 ng/mL and 202.00 ng/mL and 190.00 ng/mL, the Blood oxytocin concentration ([1]; 5 min, intravenous, individual animals) was 110.00 ng/mL and 101.00 ng/mL and 116.00 ng/mL and 68.00 ng/mL and 68.40 ng/mL and 105.00 ng/mL and the Blood oxytocin concentration ([1]; 10 min, intravenous, individual animals) was 48.40 ng/mL and 64.20 ng/mL and 55.10 ng/mL and 40.40 ng/mL and 50.00 ng/mL and 55.70 ng/mL. The Blood oxytocin concentration ([1]; 30 min, intravenous, individual animals) was 10.50 ng/mL and 15.00 ng/mL and 11.80 ng/mL and 7.10 ng/mL and 9.60 ng/mL and 11.60 ng/mL, the Blood oxytocin concentration ([1]; 60 min, intravenous, individual animals) was 2.80 ng/mL (2×) and 4.50 ng/mL and 2.90 ng/mL and 2.50 ng/mL and 2.60 ng/mL and the Blood oxytocin concentration ([1]; 120 min, intravenous, individual animals) was 0.00 ng/mL (5×) and 1.10 ng/mL. The Blood oxytocin concentration ([1]; 240 min, intravenous, average n=6) was 0.00 ng/mL, the Blood oxytocin concentration ([1]; 240 min, intravenous, individual animals) was 0.00 ng/mL and the Blood oxytocin concentration ([1]; 480 min, intravenous, average n=6) was 0.00 ng/mL. For the same compound, the Blood oxytocin concentration ([1]; 480 min, intravenous, individual animals) was 0.00 ng/mL, the AUC0-t [1, 2] was 47.345 ng·h/mL and 39.252 ng·h/mL and 28.695 ng·h/mL and 34.345 ng·h/mL and 37.415 ng·h/mL and the Cmax [1, 2] was 246.00 ng/mL and 205.00 ng/mL and 168.00 ng/mL and 202.00 ng/mL and 190.00 ng/mL. The AUC0-t ([1]; male, cynomolgus monkey, blood, iv, intravenous, average n=6, read-out: AUC0-t (converted)) was 37.5 ng·h/mL, the Cmax ([1]; male, cynomolgus monkey, blood, iv, intravenous, average n=6, read-out: Cmax) was 206 ng/mL and the AUC0-t ([1]; male, cynomolgus monkey, blood, iv, intravenous, individual animals, read-out: AUC0-t (converted)) was 38.1 ng·h/mL. For the same compound, the Cmax ([1]; male, cynomolgus monkey, blood, iv, intravenous, individual animals, read-out: Cmax) was 222 ng/mL, the level at […] ([1]; male, cynomolgus monkey, blood, 2 min, intravenous, average n=6) was 206 ng/mL and the level at […] ([1]; male, cynomolgus monkey, blood, 5 min, intravenous, average n=6) was 94.7 ng/mL. For the same compound, the level at […] ([1]; male, cynomolgus monkey, blood, 10 min, intravenous, average n=6) was 52.3 ng/mL, the level at 0.5 h ([1]; male, cynomolgus monkey, blood, 30 min, intravenous, average n=6) was 10.9 ng/mL and the level at 1 h ([1]; male, cynomolgus monkey, blood, 60 min, intravenous, average n=6) was 3.02 ng/mL. For the same compound, the level at 2 h ([1]; male, cynomolgus monkey, blood, 120 min, intravenous, average n=6) was 0.18 ng/mL, the level at 0.5 h (in vivo) was 0.204 ng/mL and the level at 1 h (in vivo) was 0.11 ng/mL. For the same compound, the level at 2 h (in vivo) was 0.057 ng/mL and the level at 4 h (in vivo) was 0.005 ng/mL.
